Key:
FXR [1] = target: T1, FXR (Homo sapiens, UniProt Q96RI1); assay: In Vitro FXR Assay (PGL3): luciferase reporter in transfected CV-1 cells; type: cell-based; settings: CV-1 cells transfected with hFXR, hRXR, PGL3-ECRE*6-luc; 18 h incubation; luminescence
T1 construct: expressed in transfected cells; host or cells: CV-1 cells
T1 sequence (Q96RI1 1-486): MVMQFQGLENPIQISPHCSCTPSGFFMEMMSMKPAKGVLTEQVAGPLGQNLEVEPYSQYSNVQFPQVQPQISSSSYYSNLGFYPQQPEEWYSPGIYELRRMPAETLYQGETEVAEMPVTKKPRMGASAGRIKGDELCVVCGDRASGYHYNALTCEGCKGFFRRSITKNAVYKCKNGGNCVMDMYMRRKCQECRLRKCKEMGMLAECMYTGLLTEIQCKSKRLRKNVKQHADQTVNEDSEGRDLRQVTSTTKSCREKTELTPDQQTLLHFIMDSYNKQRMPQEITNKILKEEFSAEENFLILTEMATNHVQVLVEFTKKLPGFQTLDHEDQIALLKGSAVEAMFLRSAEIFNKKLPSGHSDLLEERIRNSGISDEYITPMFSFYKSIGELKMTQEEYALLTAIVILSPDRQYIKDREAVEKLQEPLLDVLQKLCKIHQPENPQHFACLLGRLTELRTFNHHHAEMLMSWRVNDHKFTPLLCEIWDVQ
T1 sequence (P19793 1-462 partner): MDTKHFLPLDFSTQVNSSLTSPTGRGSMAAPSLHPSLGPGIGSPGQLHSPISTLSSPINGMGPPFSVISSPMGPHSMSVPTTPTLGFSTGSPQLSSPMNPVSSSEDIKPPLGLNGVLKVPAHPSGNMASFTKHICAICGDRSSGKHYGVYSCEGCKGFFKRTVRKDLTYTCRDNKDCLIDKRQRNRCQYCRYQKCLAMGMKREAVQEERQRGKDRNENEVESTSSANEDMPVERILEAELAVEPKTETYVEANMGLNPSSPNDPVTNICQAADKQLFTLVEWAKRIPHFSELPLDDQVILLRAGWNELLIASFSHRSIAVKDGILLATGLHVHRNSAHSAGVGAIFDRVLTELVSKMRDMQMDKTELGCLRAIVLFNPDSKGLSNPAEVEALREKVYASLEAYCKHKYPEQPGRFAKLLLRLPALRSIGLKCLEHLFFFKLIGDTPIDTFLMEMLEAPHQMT
How it was run: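 CV-1 cells in charcoal-stripped FBS were transiently co-transfected with full-length human FXR, RXR, an ECRE×6-luciferase reporter, β-gal and YFP plasmids. Transfected cells were reseeded onto half-log compound dilutions and incubated 18 h. Luciferase luminescence was read after lysis, and EC50 was determined.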

FXR [2] = target: T1, FXR; assay: In Vitro FXR Assay (TK): TK-ECRE-luc reporter in transfected CV-1 cells; type: cell-based; settings: CV-1 cells transfected with hFXR, hRXR, 18 h incubation, luminescence
How it was run: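 CV-1 cells in charcoal-stripped FBS medium were transiently cotransfected with hFXR, hRXR, TK-ECRE-luc and pCMX-YFP plasmids. After 18 h, compounds serially diluted in DMSO were added for 18 h at 37 °C, 5% CO2, then cells were lysed and luminescence read.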

Cmpd/Fex (ratio of the EC50 for the test compound relative to the EC50 of the Fexaramine control) (FXR [1])	EC50 (FXR [2]) [nM]	SMILES
+++ (‘+++’ means Cmpd/Fex < 10)	≤ 1000	COC(=O)/C=C/c1cccc(N(Cc2ccc(-c3ccc(N(C)C)cc3)cc2)C(=O)[C@H]2CC[C@H](O)CC2)c1 [compound 19, trans-(E)-Methyl 3-(3-(N-((4′-(dimethylamino)-[1,1′-biphenyl]-4-yl)methyl)-4-hydroxycyclohexanecarboxamido)phenyl)acrylate]
+++ (‘+++’ means Cmpd/Fex < 10)	≤ 1000	COC(=O)/C=C/c1cccc(N(Cc2ccc(-c3ccc(N(C)C)cc3)cc2)C(=O)CC(C)(C)C)c1 [compound 7, (E)-Methyl 3-(3-(N-((4′-(dimethylamino)-[1,1′-biphenyl]-4-yl)methyl)-3,3-dimethylbutanamido)phenyl)acrylate]
+++ (‘+++’ means Cmpd/Fex < 10)	≤ 1000	COC(=O)/C=C/c1cccc(N(Cc2ccc(-c3ccc(N(C)C)cc3)cc2)C(=O)C2CCOCC2)c1 [compound 5, (E)-Methyl 3-(3-(N-((4′-(dimethylamino)-[1,1′-biphenyl]-4-yl)methyl)tetrahydro-2H-pyran-4-carboxamido)phenyl)acrylate]
+++ (‘+++’ means Cmpd/Fex < 10)	≤ 1000	COC(=O)/C=C/c1cccc(N(Cc2ccc(-c3ccc(OC)c(C)c3)cc2)C(=O)C2CCCCC2)c1 [compound 52, (E)-Methyl 3-(3-(N-((4′-methoxy-3′-methyl-[1,1′-biphenyl]-4-yl)methyl)cyclohexanecarboxamido)phenyl) acrylate]
+ (‘+’ means Cmpd/Fex > 100)	1000 to 10000	COC(=O)/C=C/c1cccc(N(Cc2ccc(-c3nccs3)cc2)C(=O)C2CCCCC2)c1 [compound 67, (E)-Methyl 3-(3-(N-(4-(thiazol-2-yl)benzyl)cyclohexanecarboxamido)phenyl) acrylate]
+++ (‘+++’ means Cmpd/Fex < 10)	≤ 1000	COC(=O)/C=C/c1cccc(N(Cc2ccc(-c3ccc(N(C)C)cc3)cc2)C(=O)[C@H]2CC[C@H](OC)CC2)c1 [compound 9, (E)-Methyl 3-(3-((1s,4s)-N-((4′-(dimethylamino)-[1,1′-biphenyl]-4-yl)methyl)-4-methoxycyclohexanecarboxamido)phenyl)acrylate]

Source: patent publication US10626081B2, “Farnesoid X receptor agonists and uses thereof” (Metacrine, Inc., priority 2015, dated 2020)
